Results: patent publication US20230312561A1, “SOLID FORMS OF (Z)-METHYL 3-(((4-(N-METHYL-2-(4-METHYLPIPERAZIN-1-YL)ACETAMIDO)PHENYL)AMINO)(PHENYL)METHYLENE)-2-OXO-2,3-DIHYDRO-1H-PYRROLO[2,3-B]PYRIDINE-6-CARBOXYLATE AND SALTS THEREOF” (Angion Biomedica Corp., priority 2020, published 2023)

Legend:
[1] = Drying studies of Compound 1 Hydrochloride (XRPD, TGA); format: physicochemical
Description: Compound 1 Hydrochloride Form A was then subjected to drying under various conditions.
Drying studies of Compound 1 Hydrochloride Form A (Type 1 Lot) were performed.
Variability in the drying profiles of different lots of Compound 1 Hydrochloride were noted, particularly with regards to the transition between Form A and Form C. The variable behavior appeared to depend upon the nature of the input Form A batch (e.g., how it was generated and then conditioned, if at all, prior to drying, and/or if excess hydrochloric acid was present).
Concentrated HCl (154 μL, 1 eqiuv) was added which clarified the suspension to a deep orange solution. The mixture was equilibrated for 30 minutes before cooling gradually to room temperature. A thin yellow suspension resulted. The solvent volume was reduced by 50% which thickened the suspension. The suspension was matured overnight, following which the solid was filtered to isolate the solids. The solid was air dried for ˜30 minutes giving a yellow solid (damp mass: 1.24 g; pH measured at 5.0). The XRPD pattern of the damp solid corresponded with Compound 1 Hydrochloride Form H. Analysis of the damp solid by DSC and TGA indicated a water content of 8.2%, which was fairly labile up ˜75° C.
Compound 1 Hydrochloride Form H was then subjected to a drying study under various conditions.
The solids were further subjected to prolonged drying.

[2] = Solid state stability in sealed vial (XRPD, TGA, HPLC); format: physicochemical
Description: High performance liquid chromatography (HPLC) was performed according to the conditions described in Table 1: […] Upon storage for the appropriate period, the entire sample was removed, and the resulting solids assessed via XRFD, HPLC and TGA. Sample preparation for HPLC was conducted using deionized water and a working concentration of 0.5 mg/mL. […] A control sample was packed and stored in an equivalent manner and tested at T=2 and 4 weeks. Form A was stable at 40° C. and 80° C. for at least up to 4 weeks.

[3] = Dry in vacuo at 25° C., T = 24 h
[4] = Dry in vacuo at 25° C., T = 96 h
[5] = Dry in vacuo at 25° C., T = 120 h
[6] = Dry in vacuo at 45° C., T = 24 h
[7] = Dry in vacuo at 45° C., T = 96 h
[8] = Dry in vacuo at 45° C., T = 120 h
[9] = Dry in vacuo at 70° C., T = 24 h
[10] = Dry in vacuo at 70° C., T = 96 h
[11] = Dry in vacuo at 70° C., T = 120 h
[12] = 40° C., sealed vial, T = 1 week
[13] = 40° C., sealed vial, T = 2 weeks
[14] = 40° C., sealed vial, T = 4 weeks
[15] = 80° C., sealed vial, T = 1 week
[16] = 80° C., sealed vial, T = 2 weeks
[17] = 80° C., sealed vial, T = 4 weeks
[18] = 150° C., sealed vial, T = 1 week

In the case of COC(=O)c1ccc2c(c1)NC(=O)/C2=C(\Nc1ccc(N(C)C(=O)CN2CCN(C)CC2)cc1)c1ccccc1.Cl [Compound 1 Hydrochloride Form A (Type 1 Lot)], the “TGA (%)” value [1, 3] was 11.12%, the XRPD [1, 3] was “Form A” and the “TGA (%)” value [1, 4] was 10.14%. For the same compound, the XRPD [1, 4] was “Form A”, the “TGA (%)” value [1, 5] was 10.47% and the XRPD [1, 5] was “Form A”. For the same compound, the “TGA (%)” value [1, 6] was 9.84%, the XRPD [1, 6] was “Form A” and the “TGA (%)” value [1, 7] was 8.71%. For the same compound, the XRPD [1, 7] was “Form A”, the “TGA (%)” value [1, 8] was 10.19% and the XRPD [1, 8] was “Form A”. For the same compound, the “TGA (%)” value [1, 9] was 10.48%, the XRPD [1, 9] was “Form A” and the “TGA (%)” value [1, 10] was 8.19%. The XRPD [1, 10] was “Form A”, the “TGA (%)” value [1, 11] was 10.85% and the XRPD [1, 11] was “Form A”. The “TGA (%)” value ([1]; T = 0, before drying) was 9.673%, the “solid state stability in sealed vial” value ([2]; 40° C. and 80° C., at least up to 4 weeks) was “stable” and the “HPLC (%)” value [2, 12] was 99.43%. For the same compound, the “TGA (%)” value [2, 12] was 12.01%, the “HPLC (%)” value [2, 13] was 99.43% and the “TGA (%)” value [2, 13] was 12.15%. For the same compound, the “HPLC (%)” value [2, 14] was 99.65%, the “TGA (%)” value [2, 14] was 11.6% and the XRPD [2, 14] was “Form A”. For the same compound, the “HPLC (%)” value [2, 15] was 99.53%, the “TGA (%)” value [2, 15] was 3.76% and the “HPLC (%)” value [2, 16] was 99.45%. The “TGA (%)” value [2, 16] was 3.71%, the “HPLC (%)” value [2, 17] was 99.59% and the “TGA (%)” value [2, 17] was 3.35%. The “HPLC (%)” value [2, 18] was 36.6%, the “TGA (%)” value [2, 18] was 1.14% and the “HPLC (%)” value ([2]; Ambient (control), T = 0) was 99.54%. The “TGA (%)” value ([2]; Ambient (control), T = 0) was 12.07%, the “HPLC (%)” value ([2]; Ambient (control), T = 2 weeks) was 99.43% and the “TGA (%)” value ([2]; Ambient (control), T = 2 weeks) was 11.99%. For the same compound, the “HPLC (%)” value ([2]; Ambient (control), T = 4 weeks) was 99.53%, the “TGA (%)” value ([2]; Ambient (control), T = 4 weeks) was 12.15% and the XRPD ([2]; Ambient (control), T = 4 weeks) was “Form A”.
